Our source for the Activity and MIC values is ChEMBL document CHEMBL4371024, “Synthesis and characterization of pyridoxine, nicotine and nicotinamide salts of dithiophosphoric acids as antibacterial agents against resistant wound infection” (Bioorg Med Chem, 2019).

Values after ≈ are worked out from the molar mass of the structure shown. Active and inactive are the calls of the source. No cut-off for these calls is given here.

Data set [1] deals with Pseudomonas aeruginosa. The data set can be described thus: Inhibition of extracellular component secretion and matrix formation in Pseudomonas aeruginosa assessed as uncovering bacterial cells at 1 uM by scanning electron microscopy. It is filed as functional, organism-based.
The subject of data set [2] is Staphylococcus aureus. The data set can be described thus: Inhibition of extracellular component secretion and matrix formation in Staphylococcus aureus assessed as induction of bacterial aggregation at 1 uM by scanning electron microscopy. It is filed as functional, organism-based.
Data set [3] relates to Staphylococcus aureus. The data set can be described thus: Inhibition of extracellular component secretion and matrix formation in Staphylococcus aureus assessed as uncovering of bacterial cells at 1 uM by scanning electron microscopy. Type of data set: functional, organism-based.
For data set [4], the system named is Pseudomonas aeruginosa. The data set can be described thus: Inhibition of extracellular component secretion and matrix formation in Pseudomonas aeruginosa assessed as induction of bacterial aggregation at 1 uM by scanning electron microscopy. Type of data set: functional, organism-based.
Data set [5] relates to Staphylococcus epidermidis. The data set can be described thus: Antibacterial activity against Staphylococcus epidermidis after 24 hrs by broth dilution method. Type of data set: functional. On the technique in general: Broth dilution looks for growth in wells or tubes with falling amounts of substance.
Data set [6] has as its system Erythrocyte. The data set can be described thus: Hemolytic activity in human erythrocytes at 1 mM. It is filed as ADME, cell-based. The note with it: 1000 µM.
The test system of data set [7] is Staphylococcus aureus. The data set can be described thus: Antibacterial activity against Staphylococcus aureus ATCC 29213 after 24 hrs by broth dilution method. The following applies: ATCC 29213, 24 h. It is filed as functional.
For data set [8], the system named is Klebsiella pneumoniae. The data set can be described thus: Antibacterial activity against Klebsiella pneumoniae after 24 hrs by broth dilution method. Type of data set: functional.
In data set [9] the test system is Pseudomonas aeruginosa. The data set can be described thus: Antibacterial activity against Pseudomonas aeruginosa ATCC 27853 after 24 hrs by broth dilution method. Type of data set: functional. The note with it: ATCC 27853, 24 h.

Consider `CC(C)[C@@H]1CC[C@@H](C)C[C@H]1OP(=S)(S)O[C@@H]1C[C@H](C)CC[C@H]1C(C)C.Cc1ncc(CO)c(CO)c1O`, for which the outcome in data set [1], in [2], in data set [3] and in data set [4] was Active.
As a reminder, the MIC is the lowest concentration that inhibits growth of the organism. Lower therefore signals a more susceptible organism. On to `CC(C)[C@@H]1CC[C@@H](C)C[C@H]1OP(=S)(S)O[C@@H]1C[C@H](C)CC[C@H]1C(C)C`, for which the MIC is 380 µM (≈ 155 µg/mL) in [5], 190 µM (≈ 77.3 µg/mL) in data set [7], 1540 µM (≈ 626 µg/mL) in [8] and 380 µM (≈ 155 µg/mL) in data set [9]. Also, in data set [6], the Activity result is listed as “Toxic”.
